According to patent publication US20140057953A1, “BIARYL DERIVATIVES AS SELECTIVE 17BETA-HYDROXYSTEROID DEHYDROGENASE TYPE 2 INHIBITORS” (priority 2011, published 2014):

Assays:
ERβ = ERβ (Homo sapiens, UniProt Q92731); assay: ER affinity assay (ERβ), [3H]-E2 displacement; conditions: Relative Binding Affinity, E2 = 100%; recombinant human protein
Method: (§1) The binding affinity of selected compounds to the ERα and ERβ was determined according to Zimmermann et al. (Zimmermann, J. et al., 3. Steroid Biochem. Mol. Biol., 94:57-66 (2005)) using recombinant human proteins. Briefly, 0.25 μM of ERα or ERβ, respectively, were incubated with [^3H]-E2 (10 nM) and test compound for 1 h at room temperature. The potential inhibitors were dissolved in DMSO (5% final concentration). Evaluation of non-specific-binding was performed with diethylstilbestrol (10 μM). After incubation, ligand-receptor complexes were selectively bound to hydroxyapatite (5 g/60 ml TE-buffer). The formed complex was separated, washed and resuspended in ethanol. For radiodetection, scintillator cocktail (Quickszint 212, Zinsser Analytic, Frankfurt) was added and the samples were measured in a liquid scintillation counter (Rack Beta Primo 1209, Wallac, Turku). […] The compound concentration to displace 50% of the receptor bound [^3H]-E2 were determined. Unlabelled E2 was used as a reference. For determination of the relative binding affinity (RBA) the ratio was calculated according to the following equation: […]
(§2) After the assay was established and validated a modification was made to increase throughput. […] Results were reported as RBA ranges.

17β-HSD1 = biological target: T1, 17β-HSD1 (Homo sapiens, UniProt P14061); assay: Inhibition of 17β-HSD1 in cell-free assay; type: biochemical; conditions: human placenta, cytosolic fraction, substrate E1 500 nM, cofactor NADH 500 μM; for inhibition at 1 µM / % inhibition 17β-HSD1: inhibitor concentration 1 μM
T1 construct: For the partial purification of 17β-HSD1, the cytosolic fraction was precipitated with ammonium sulfate; from tissue; host or cells: human placenta, cytosolic fraction
T1 sequence (P14061 1-328): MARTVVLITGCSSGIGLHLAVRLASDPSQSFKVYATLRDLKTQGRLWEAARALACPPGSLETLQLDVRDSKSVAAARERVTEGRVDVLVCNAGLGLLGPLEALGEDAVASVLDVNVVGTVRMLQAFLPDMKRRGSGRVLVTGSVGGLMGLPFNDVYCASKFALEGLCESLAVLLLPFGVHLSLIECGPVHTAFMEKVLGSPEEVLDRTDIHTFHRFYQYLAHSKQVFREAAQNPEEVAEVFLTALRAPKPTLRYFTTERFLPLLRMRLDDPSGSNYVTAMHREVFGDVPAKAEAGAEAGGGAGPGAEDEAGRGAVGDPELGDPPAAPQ
Method: (§3) Fresh human placenta was homogenized. Cytosolic and microsomal fractions were separated by centrifugation at 1000 g, 10000 g and 150000 g. 17β-HSD2 was obtained directly from the microsomal fraction. For the partial purification of 17β-HSD1, the cytosolic fraction was precipitated with ammonium sulfate. Aliquots containing 17β-HSD1 or 17β-HSD2 were stored frozen.
The 17β-HSD1 inhibition assay was performed similarly to the 17β-HSD2 test. The cytosolic fraction was incubated with NADH [500 μM], test compound and a mixture of unlabelled- and [^3H]-E1 (final concentration: 500 nM, 0.15 μCi) for 10 min at 37° C. Further treatment of the samples and HPLC separation was carried out as mentioned above for 17β-HSD2.

17β-HSD2 = biological target: T2, 17β-HSD2 (Homo sapiens, UniProt P37059); assay: Inhibition of 17β-HSD2 in cell-free assay; type: biochemical; design: 17β-HSD2 was obtained directly from the microsomal fraction; from tissue; host or cells: human placenta, microsomal fraction; conditions: human placenta, microsomal fraction, substrate E2 500 nM, cofactor NAD+ 1500 μM; for inhibition at 1 µM / % inhibition 17β-HSD2: inhibitor concentration 1 μM
T2 sequence (P37059 1-387): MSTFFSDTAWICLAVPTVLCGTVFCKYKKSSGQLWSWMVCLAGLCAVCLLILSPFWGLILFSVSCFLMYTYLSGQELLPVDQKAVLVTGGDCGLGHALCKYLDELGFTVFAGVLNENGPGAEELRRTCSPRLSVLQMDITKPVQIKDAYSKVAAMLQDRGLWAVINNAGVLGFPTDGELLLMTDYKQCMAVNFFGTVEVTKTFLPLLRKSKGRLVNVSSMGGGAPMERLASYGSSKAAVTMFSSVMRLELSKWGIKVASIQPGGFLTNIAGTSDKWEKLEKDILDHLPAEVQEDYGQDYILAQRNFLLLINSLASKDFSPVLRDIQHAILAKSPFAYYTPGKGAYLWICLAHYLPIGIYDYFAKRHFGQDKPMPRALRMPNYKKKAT
Method: as §3
Inhibitor stock solutions were prepared in DMSO. Final concentration of DMSO was adjusted to 1% in all samples. The enzymatic reaction was started by addition of a mixture of unlabelled- and [^3H]-E2 (final concentration: 500 nM, 0.11 μCi). After 20 min at 37° C., the incubation was stopped with HgCl2 and the mixture was extracted with ether. After evaporation, the steroids were dissolved in acetonitrile. E1 and E2 were separated using acetonitrile/water (45:55) as mobile phase in a C18 RP chromatography column (Nucleodur C18, 3 μm, Macherey-Nagel, Duren) connected to a HPLC-system (Agilent 1100 Series, Agilent Technologies, Waldbronn). Detection and quantification of the steroids were performed using a radioflow detector (Berthold Technologies, Bad Wildbad). The conversion rate was calculated according to the following equation: […]

ERα = biological target: T3, ERα (Homo sapiens, UniProt P03372); assay: ER affinity assay (ERα), [3H]-E2 displacement; conditions: Relative Binding Affinity, E2 = 100%; recombinant human protein
T3 sequence (P03372 1-595): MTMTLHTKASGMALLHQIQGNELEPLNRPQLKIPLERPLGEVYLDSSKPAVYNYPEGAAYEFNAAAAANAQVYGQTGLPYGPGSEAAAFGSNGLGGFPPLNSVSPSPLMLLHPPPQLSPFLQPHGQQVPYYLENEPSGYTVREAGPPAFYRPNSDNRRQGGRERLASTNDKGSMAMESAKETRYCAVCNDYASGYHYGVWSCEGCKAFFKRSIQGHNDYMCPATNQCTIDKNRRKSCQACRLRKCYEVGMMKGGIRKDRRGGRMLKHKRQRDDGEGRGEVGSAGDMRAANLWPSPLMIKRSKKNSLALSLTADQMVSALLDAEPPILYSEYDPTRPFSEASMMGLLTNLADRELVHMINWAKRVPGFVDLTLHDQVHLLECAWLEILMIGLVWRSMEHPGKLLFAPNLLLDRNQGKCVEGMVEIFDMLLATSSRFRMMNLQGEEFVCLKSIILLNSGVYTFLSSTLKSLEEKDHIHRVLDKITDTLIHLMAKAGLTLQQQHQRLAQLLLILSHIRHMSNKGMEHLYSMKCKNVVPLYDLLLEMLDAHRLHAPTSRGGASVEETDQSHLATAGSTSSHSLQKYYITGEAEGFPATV
Method: as §1, §2

ERβ, sequence (Q92731 whole entry): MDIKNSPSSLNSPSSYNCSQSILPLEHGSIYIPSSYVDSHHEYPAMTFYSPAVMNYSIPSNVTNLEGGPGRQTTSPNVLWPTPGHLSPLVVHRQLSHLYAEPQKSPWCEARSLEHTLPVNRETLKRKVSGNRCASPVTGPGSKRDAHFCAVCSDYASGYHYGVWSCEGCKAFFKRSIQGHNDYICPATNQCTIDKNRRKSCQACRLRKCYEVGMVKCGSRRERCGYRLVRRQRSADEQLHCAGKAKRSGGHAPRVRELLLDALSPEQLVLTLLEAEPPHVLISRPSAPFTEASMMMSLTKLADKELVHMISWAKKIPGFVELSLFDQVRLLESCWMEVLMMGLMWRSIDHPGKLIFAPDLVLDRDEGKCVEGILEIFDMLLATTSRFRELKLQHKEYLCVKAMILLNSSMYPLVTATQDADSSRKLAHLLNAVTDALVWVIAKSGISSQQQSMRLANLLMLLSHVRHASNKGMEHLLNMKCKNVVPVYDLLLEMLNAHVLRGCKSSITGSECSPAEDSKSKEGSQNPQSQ

ERβ RBA (%) (ERβ) | IC50 (17β-HSD1) [nM] | IC50 (17β-HSD2) [nM] | ERα RBA (%) (ERα) | inhibition at 1 µM (17β-HSD1) [%] | inhibition at 1 µM (17β-HSD2) [%] | % inhibition 17β-HSD1 (17β-HSD1) | % inhibition 17β-HSD2 (17β-HSD2) | Structure (SMILES)
<0.1 | > 100000 | 265 | <0.1 | – | – | – | – | COc1cccc(CN(C)C(=O)c2ccc(-c3cccc(C)c3)cc2)c1 [compound 3, N-(3-Methoxybenzyl)-N,3′-dimethylbiphenyl-4-carboxamide]
<0.1 | > 60000 | 517 | <0.1 | – | – | – | – | COc1cccc(-c2cccc(C(=O)N(C)c3cccc(OC)c3)c2)c1 [compound 11, 3′-Methoxy-N-(3-methoxyphenyl)-N-methylbiphenyl-3-carboxamide]
– | – | – | – | 11 | 18 | – | – | COc1cccc(CCN(C)C(=O)c2ccc(-c3ccccc3)s2)c1 [compound 19, N-(3-Methoxyphenethyl)-N-methyl-5-phenylthiophene-2-carboxamide]
– | – | – | – | – | 11 | n.i.^e | – | CN(CCc1cccc(O)c1)C(=O)c1ccc(-c2ccccc2)s1 [compound 20, N-(3-Hydroxyphenethyl)-N-methyl-5-phenylthiophene-2-carboxamide]
– | – | – | – | – | – | n.i.^e | n.i.^e | COc1cccc(CCN(C)C(=O)c2ccc(-c3cccc(F)c3)s2)c1 [compound 21, 5-(3-Fluorophenyl)-N-(3-methoxyphenethyl)-N-methylthiophene-2-carboxamide]
– | – | – | – | 12 | 17 | – | – | CN(CCc1cccc(O)c1)C(=O)c1ccc(-c2cccc(F)c2)s1 [compound 22, 5-(3-Fluorophenyl)-N-(3-hydroxyphenethyl)-N-methylthiophene-2-carboxamide]
<0.1 | > 100000 | 370 | <0.1 | – | – | – | – | COc1cccc(CN(C)C(=O)c2ccc(-c3cccc(OC)c3)s2)c1 [compound 23, N-(3-Methoxybenzyl)-5-(3-methoxyphenyl)-N-methylthiophene-2-carboxamide]
<0.1 | > 5450 | 394 | <0.1 | – | – | – | – | CN(Cc1cccc(O)c1)C(=O)c1ccc(-c2cccc(O)c2)s1 [compound 24, N-(3-Hydroxybenzyl)-5-(3-hydroxyphenyl)-N-methylthiophene-2-carboxamide]
<0.1 | 5100 | 335 | <0.1 | – | – | – | – | CN(Cc1cccc(O)c1)C(=O)c1ccc(-c2ccc(O)cc2)s1 [compound 26, N-(3-Hydroxybenzyl)-5-(4-hydroxyphenyl)-N-methylthiophene-2-carboxamide]
– | – | – | – | – | 48 | n.i.^e | – | COc1cccc(CN(C)C(=O)c2ccc(-c3ccccc3OC)s2)c1 [compound 27, N-(3-Methoxybenzyl)-5-(2-methoxyphenyl)-N-methylthiophene-2-carboxamide]
– | – | – | – | – | – | n.i.^e | n.i.^e | COc1cccc(CN(C)C(=O)c2ccc(-c3ccc(C#N)cc3)s2)c1 [compound 31, 5-(4-Cyanophenyl)-N-(3-methoxybenzyl)-N-methylthiophene-2-carboxamide]
<0.1 | 18600 | 246 | <0.1 | – | – | – | – | CN(Cc1cccc(O)c1)C(=O)c1ccc(-c2cccc(N(C)C)c2)s1 [compound 40, 5-(3-(Dimethylamino)phenyl)-N-(3-hydroxybenzyl)-N-methylthiophene-2-carboxamide]
– | 3150 | 326 | – | – | – | – | – | CN(Cc1cccc(O)c1)C(=O)c1ccc(-c2cccc(F)c2)s1 [compound 41, 5-(3-Fluorophenyl)-N-(3-hydroxybenzyl)-N-methylthiophene-2-carboxamide]
<0.1 | 4450 | 61 | <0.1 | – | – | – | – | COc1cccc(-c2ccc(C(=O)N(C)Cc3cccc(O)c3)s2)c1F [compound 43, 5-(2-Fluoro-3-methoxyphenyl)-N-(3-hydroxybenzyl)-N-methylthiophene-2-carboxamide]
<0.1 | 10600 | 163 | <0.1 | – | – | – | – | Cc1cccc(-c2ccc(C(=O)N(C)Cc3cccc(O)c3)s2)c1 [compound 46, N-(3-Hydroxybenzyl)-N-methyl-5-m-tolylthiophene-2-carboxamide]
– | 1930 | 313 | – | – | – | – | – | COc1cccc(N(C)C(=O)c2ccc(-c3ccc(OC)cc3OC)s2)c1 [compound 57, 5-(2,4-Dimethoxyphenyl)-N-(3-methoxyphenyl)-N-methylthiophene-2-carboxamide]
<0.1 | 10600 | 169 | <0.1 | – | – | – | – | COc1cccc(N(C)C(=O)c2ccc(-c3cccc(N(C)C)c3)s2)c1 [compound 58, 5-(3-(Dimethylamino)phenyl)-N-(3-methoxyphenyl)-N-methylthiophene-2-carboxamide]
– | > 100000 | 726 | – | – | – | – | – | COc1cccc(N(C)C(=O)c2ccc(-c3ccc(F)c(OC)c3)s2)c1 [compound 62, 5-(4-Fluoro-3-methoxyphenyl)-N-(3-methoxyphenyl)-N-methylthiophene-2-carboxamide]
– | – | – | – | 18 | 49 | – | – | COc1ccc(N(C)C(=O)c2ccc(-c3cccc(OC)c3F)s2)cc1 [compound 73, 5-(2-Fluoro-3-methoxyphenyl)-N-(4-methoxyphenyl)-N-methylthiophene-2-carboxamide]
– | 1110 | 137 | – | – | – | – | – | COc1cccc(-c2ccc(C(=O)N(C)c3cccc(-c4ccccc4)c3)s2)c1 [compound 76, N-(Biphenyl-3-yl)-5-(3-methoxyphenyl)-N-methylthiophene-2-carboxamide]
